The test system of this test is modified version of the GPR119 receptor (94% identity to human receptor). The test is described as follows: cAMP production assay (LANCE cAMP kit, TR-FRET) in HEK-293 cells. The format is cell-based. The note with it: for cAMP production in HEK-293 cells: HEK-293 cells stably expressing modified GPR119, test compounds 0.2 nM to 10 μM, one-hour incubation at ambient temperature; for Fold over baseline: increase in cAMP relative to basal levels, agonist activity if 1.5-fold or greater. The protocol: The assay utilized HEK-293 cells that stably express a modified version of the GPR119 receptor (94% identity to human receptor), under the control of a CMV promoter containing a tet-on element for tetracycline-inducible expression. GPR119 agonist-induced cyclic AMP (cAMP) production was measured in this cell line using the LANCE cAMP kit (Perkin Elmer, Waltham, Mass.). To generate a working stock of cells for the assay, cells were treated overnight with 1 μg/mL doxycycline at 37° C. in the presence of 5% CO2 to induce receptor expression. Cells were then harvested by enzymatic dissociation with 0.05% trypsin, resuspended in freezing medium (DMEM growth medium with 10% each of fetal bovine serum and DMSO), aliquoted and frozen at −80° C. On the day of the assay, frozen cells were thawed, washed 1× in PBS and resuspended in Hank's buffered salt solution (HBSS) containing 5 mM HEPES, 0.1% BSA and Alexa Fluor 647-conjugated anti-cAMP antibody (diluted 1:100). The cell suspension was then transferred to a Proxiplate Plus white 384-well assay plate (Perkin-Elmer) at 2000 cells/well. Test compounds at final concentrations ranging from 0.2 nM to 10 μM were added to the assay plate, followed by a one-hour incubation at ambient temperature (volume=10 μL/well). DMSO concentration was held constant at 0.5%. After incubation with test compounds, 10 μL of a detergent buffer containing a biotinylated cAMP/Europium-conjugated streptavidin complex (Europium-labeled cAMP tracer) were added to each well on the assay plate, followed by a 2-hour incubation at ambient temperature. During this incubation cAMP released from lysed cells competes with the Europium-labeled cAMP tracer for binding to the Alexa Fluor 647-conjugated antibody. […] Cellular cAMP levels were then determined by interpolation of raw signal data using a cAMP standard curve. Compounds were determined to have agonist activity if they stimulated a 1.5-fold or greater increase in cAMP relative to basal levels.
In general terms: Cyclic AMP is a second messenger, typically raised through Gs and lowered through Gi signalling.

Molecules are shown by their SMILES.

Consider 22 compounds from patent US8754226B2, “Piperidinyl-substituted lactams as GPR119 modulators” (Array BioPharma Inc., priority 2010, dated 2014).

For `O=C1[C@@H](Oc2ccc(-n3cncn3)cc2)CCN1C1CCN(c2ncc(C(F)(F)F)cc2Cl)CC1` [Example 141, (S)-3-(4-(1H-1,2,4-triazol-1-yl)phenoxy)-1-(1-(3-chloro-5-(trifluoromethyl)pyridin-2-yl)piperidin-4-yl)pyrrolidin-2-one], the “cAMP production in HEK-293 cells” value was determined as 15.5 nmol and the Fold over baseline was 3.7.

For the compound `CS(=O)(=O)c1ccc(N[C@H]2CCN(C3CCN(c4ccc(C(F)(F)F)cn4)CC3)C2=O)c(F)c1` [Example 99, (S)-3-(2-fluoro-4-(methyl-sulfonyl)phenylamino)-1-(1-(5-(trifluoromethyl)pyridin-2-yl)piperidin-4-yl)pyrrolidin-2-one], the “cAMP production in HEK-293 cells” value amounted to 12.4 nmol and the Fold over baseline is 3.5.

In the case of `CCc1cnc(N2CCC(N3CCCC(Nc4ccc(S(C)(=O)=O)c(F)c4)C3=O)CC2)nc1` (centres unmarked) [Example 63, 1′-(5-ethylpyrimidin-2-yl)-3-(3-fluoro-4-(methylsulfonyl)phenylamino)-[1,4′-bipiperidin]-2-one], the “cAMP production in HEK-293 cells” value worked out at 16.2 nmol and the Fold over baseline was found to be 3.4.

For the compound `CCc1cnc(N2CCC(N3CCC(Oc4cc(F)c(S(C)(=O)=O)cc4F)C3=O)CC2)nc1` (centres unmarked) [Example 87, 3-(2,5-difluoro-4-(methylsulfonyl)phenoxy)-1-(1-(5-ethylpyrimidin-2-yl)piperidin-4-yl)pyrrolidin-2-one trifluoroactetate], the “cAMP production in HEK-293 cells” value was found to be 5.5 nmol and the Fold over baseline came to 1.8.

For the compound `O=C(c1ccc(O[C@H]2CCN(C3CCN(c4ncc(Cl)cc4F)CC3)C2=O)c(F)c1)N1CC[C@@H](O)C1` [Example 155, (S)-1-(1-(5-chloro-3-fluoropyridin-2-yl)piperidin-4-yl)-3-(2-fluoro-4-((R)-3-hydroxypyrrolidine-1-carbonyl)phenoxy)pyrrolidin-2-one], the “cAMP production in HEK-293 cells” value came to 13.4 nmol and the Fold over baseline is 2.5.

In the case of `CCc1cnc(N2CCC(N3CCC[C@H](Nc4cc(C)c(S(C)(=O)=O)cc4F)C3=O)CC2)nc1` [Example 58, (S)-1′-(5-ethylpyrimidin-2-yl)-3-(2-fluoro-5-methyl-4-(methylsulfonyl)phenylamino)-[1,4′-bipiperidin]-2-one], the “cAMP production in HEK-293 cells” value was found to be 13.2 nmol and the Fold over baseline turned out to be 2.4.

With `CN(C)C(=O)c1cnc(N2CCC(N3CC[C@H](Nc4ccc(S(C)(=O)=O)cc4F)C3=O)CC2)c(Cl)c1` [Example 157, (S)-5-chloro-6-(4-(3-(2-fluoro-4-(methylsulfonyl)phenylamino)-2-oxopyrrolidin-1-yl)piperidin-1-yl)-N,N-dimethylnicotinamide], the “cAMP production in HEK-293 cells” value came to 8.3 nmol and the Fold over baseline amounted to 3.1.

Turning to `CS(=O)(=O)c1ccc(N[C@H]2CCN(C3CCN(c4cnc(Br)cn4)CC3)C2=O)c(F)c1` [Example 12, (S)-1-(1-(5-bromopyrazin-2-yl)piperidin-4-yl)-3-(2-fluoro-4-(methylsulfonyl)phenyl-amino)pyrrolidin-2-one], the “cAMP production in HEK-293 cells” value is 23.4 nmol and the Fold over baseline was found to be 3.8.

As to `CCc1ccc(N2CCC(N3CC[C@H](Nc4ccc(S(C)(=O)=O)cc4F)C3=O)CC2)nc1` [Example 27A, (S)-1-(1-(5-Ethylpyridin-2-yl)piperidin-4-yl)-3-(2-fluoro-4-(methylsulfonyl)phenylamino)pyrrolidin-2-one], the “cAMP production in HEK-293 cells” value came out at 12.9 nmol and the Fold over baseline worked out at 2.9.

For the compound `CCc1cnc(N2CCC(N3CC[C@H](Oc4ccc(-n5nnnc5C)cc4)C3=O)CC2)nc1` [Example 70, (S)-1-(1-(5-ethylpyrimidin-2-yl)piperidin-4-yl)-3-(4-(5-methyl-1H-tetrazol-1-yl)phenoxy)pyrrolidin-2-one], the “cAMP production in HEK-293 cells” value turned out to be 6.1 nmol and the Fold over baseline was 1.8.

Turning to `CS(=O)(=O)c1cc(F)c(O[C@H]2CCN(C3CCN(c4ncc(C(F)(F)F)cc4F)CC3)C2=O)cc1F` [Example 166, (S)-3-(2,5-difluoro-4-(methylsulfonyl)phenoxy)-1-(1-(3-fluoro-5-(trifluoromethyl)pyridin-2-yl)piperidin-4-yl)pyrrolidin-2-one], the “cAMP production in HEK-293 cells” value came out at 15.3 nmol and the Fold over baseline was 3.6.

With `CS(=O)(=O)c1ccc(N[C@H]2CCN(C3CCN(c4ccc(C#N)cn4)CC3)C2=O)c(F)c1` [Example 112, (S)-6-(4-(3-(2-fluoro-4-(methylsulfonyl)phenyl-amino)-2-oxopyrrolidin-1-yl)piperidin-1-yl)nicotinonitrile], the “cAMP production in HEK-293 cells” value was found to be 22.5 nmol and the Fold over baseline is listed as 1.7.

With `CS(=O)(=O)c1ccc(O[C@H]2CCN(C3CCN(c4cnc(Cl)cn4)CC3)C2=O)cn1` [Example 69, (S)-1-(1-(5-chloropyrazin-2-yl)piperidin-4-yl)-3-(6-(methylsulfonyl)pyridin-3-yloxy)pyrrolidin-2-one], the “cAMP production in HEK-293 cells” value amounted to 21.3 nmol and the Fold over baseline came to 3.2.

As to `CS(=O)(=O)c1cc(F)c(O[C@H]2CCN(C3CCN(c4ncc(Br)cn4)CC3)C2=O)cc1F` [Example 90, (S)-1-(1-(5-bromopyrimidin-2-yl)piperidin-4-yl)-3-(2,5-difluoro-4-(methylsulfonyl)phenoxy)pyrrolidin-2-one], the “cAMP production in HEK-293 cells” value turned out to be 11.7 nmol and the Fold over baseline amounted to 2.7.

As for `CS(=O)(=O)c1cc(F)c(N[C@H]2CCN(C3CCN(c4ncc(C(F)(F)F)cc4F)CC3)C2=O)c(F)c1` [Example 117, (S)-3-(2,6-difluoro-4-(methylsulfonyl)phenyl-amino)-1-(1-(3-fluoro-5-(trifluoromethyl)pyridin-2-yl)piperidin-4-yl)pyrrolidin-2-one], the “cAMP production in HEK-293 cells” value stood at 31.1 nmol and the Fold over baseline is recorded as 4.0.

In the case of `CS(=O)(=O)c1cc(F)c(N[C@H]2CCCCN(C3CCN(c4cnccn4)CC3)C2=O)cc1F.Cl` [Example 83, (S)-3-(2,5-difluoro-4-(methylsulfonyl)phenylamino)-1-(1-(pyrazin-2-yl)piperidin-4-yl)azepan-2-one hydrochloride], the “cAMP production in HEK-293 cells” value came to 13.0 nmol and the Fold over baseline turned out to be 2.9.

As to `CS(=O)(=O)c1cc(F)c(N[C@H]2CCN(C3CCN(c4ncc(Cl)cn4)CC3)C2=O)cc1F` [Example 6, (S)-3-(2,5-difluoro-4-(methyl-sulfonyl)phenylamino)-1-(1-(5-chloropyrimidin-2-yl)piperidin-4-yl)pyrrolidin-2-one], the “cAMP production in HEK-293 cells” value was 9.2 nmol and the Fold over baseline was 1.8.

As for `CSc1cnc(N2CCC(N3CC[C@H](Nc4ccc(S(C)(=O)=O)cc4F)C3=O)CC2)nc1` [Example 30, (S)-3-(2-fluoro-4-(methylsulfonyl)phenylamino)-1-(1-(5-(methylthio)pyrimidin-2-yl)piperidin-4-yl)pyrrolidin-2-one], the “cAMP production in HEK-293 cells” value came to 6.6 nmol and the Fold over baseline is listed as 2.0.

`CCc1cnc(N2CCC(N3CCC[C@H](Oc4cc(F)c(S(C)(=O)=O)cc4F)C3=O)CC2)nc1` [Example 165, (S)-3-(2,5-difluoro-4-(methylsulfonyl)phenoxy)-1′-(5-ethylpyrimidin-2-yl)-[1,4′-bipiperidin]-2-one]: the “cAMP production in HEK-293 cells” value is 16.0 nmol and the Fold over baseline is 3.2.

With `CS(=O)(=O)c1ccc(N[C@H]2CCN(C3CCN(c4ncc(C(F)(F)F)cc4Cl)CC3)C2=O)cn1` [Example 119, (S)-1-(1-(3-chloro-5-(trifluoromethyl)pyridin-2-yl)piperidin-4-yl)-3-(6-(methylsulfonyl)pyridin-3-ylamino)pyrrolidin-2-one], the “cAMP production in HEK-293 cells” value was determined as 16.3 nmol and the Fold over baseline was found to be 3.3.

In the case of `CN(C)C(=O)c1ccc(O[C@H]2CCN(C3CCN(c4ncc(Cl)cc4F)CC3)C2=O)cn1` [Example 149, (S)-5-(1-(1-(5-chloro-3-fluoropyridin-2-yl)piperidin-4-yl)-2-oxopyrrolidin-3-yloxy)-N,N-dimethylpicolinamide], the “cAMP production in HEK-293 cells” value stood at 6.8 nmol and the Fold over baseline was determined as 1.5.

For `CCc1cnc(N2CCC(N3CCCC(Nc4ccc(S(C)(=O)=O)cc4F)C3=O)CC2)nc1` (centres unmarked) [Example 62, 1′-(5-ethylpyrimidin-2-yl)-3-(2-fluoro-4-(methylsulfonyl)phenylamino)-[1,4′-bipiperidin]-2-one], the “cAMP production in HEK-293 cells” value stood at 9.8 nmol and the Fold over baseline came to 2.9.
